Data taken from article PMC11636681, “Pharmacokinetics and pharmacodynamics of antibacterial peptide NZX in Staphylococcus aureus mastitis mouse model” (Applied Microbiology and Biotechnology, 2024).
Positions of bridges follow the written chain, without caps; N, C: chain ends. Residues, ends and D or L forms follow the SMILES beside them.

Legend:
S. aureus ATCC 43300 = experiment: In vitro dose-killing curves (24 h); type: cell-based, Staphylococcus aureus
Experimental: The in vitro dose-killing curves of NZX against the test S. aureus strains were conducted as previous described (Brinch et al. [2010]), with some modification. The S. aureus cells in mid-log phage were diluted. Then, the killing curves of NZX against S. aureus strains were carried out in the 48-well plate. Specifically, a volume of 50 μL NZX (0.6–150 μM) was mixed with 450 μL of the above diluted bacterial suspension (5 × 10^5 CFU/mL), and the mixtures were incubated in the Micro Oscillator for 24 h (600 rpm, 37 °C). Subsequently, the bacteria suspensions were plated on MHA medium to count. Lincomycin and ceftiofur were set as antibiotic controls, respectively. PBS was negative control. Results were expressed as the average of three independent experiments data.

[1] = Stability of NZX in mammary gland tissue homogenate; type: in vitro ADME; conditions: mouse, 100 μg/mL in mammary gland tissue homogenate, 37 °C, SPE then HPLC–UV 280 nm, mean peak area / initial value, read-out: residual amount of NZX in mammary tissue homogenate
Experimental: A 0.5 g of mammary tissue or milk were weighed, homogenized, and transferred to a 10 mL polypropylene centrifuge tube, respectively, extracted sequentially by adding into a 3 mL of 0.1 M of McFarland buffer and 1% trichloroacetic acid (TCA), and cleaned by a C18 solid-phase extraction (SPE) cartridge (Oasis MAX 3 cc 60 mg and Oasis HLB 3 cc 60 mg, respectively, Waters, USA). Afterwards, a 2 mL of 45% acetonitrile with 2% formic acid and 3 mL of 45% acetonitrile were used to elute the columns, respectively, the collected eluents were freeze-dried and dissolved in 200 µL of deionized water and filtered by a […] sterile filter membrane before the analysis of high-performance liquid chromatography-ultraviolet (HPLC–UV). The HPLC–UV with a C18 reverse-phase column (ZORBAX Eclipse Plus C18 4.6 mm × 250 mm, 5 µm) conditions for detecting NZX were as follows: the mobile phase consisted of A: 0.1% trifluoroacetate […] in acetonitrile and B: 0.1%TFA in water; the injection volume was 40 μL; the wavelength of UV detector was 280 nm; flow rate was 1.0 mL/min; the column temperature was 35 °C, and the elution was conducted with a linear gradient of 20–45% mobile phase A for 16 min. The linear relationship, limits of detection (LOD), limits of quantitation (LOQ), accuracy and precision were determined by adding the known concentrations of NZX into the extracted blank matrix of mammary gland. Each concentration was conducted three times.
A 100 μg/mL of NZX was suspended in mammary gland tissue homogenate or milk, respectively, and then incubated at 37 °C for 0, 8, 16 and 24 h, respectively. Afterwards, samples were pretreated and quantified as the above methods. The results were expressed as a ratio of the mean peak area measured at different times divided by the mean value of the initial value.

Row | Structure (SMILES) | EC50 (S. aureus ATCC 43300; Staphylococcus aureus, ATCC43300, 50% reduction in Log10 CFU at 24 h between minimum and maximum) | Cs (S. aureus ATCC 43300; concentration causing no apparent growth in Log10 CFU at 24 h vs initial inoculum) | remaining at 8 h, 100 μg/mL ([1]; 8 h) | remaining at 16 h, 100 μg/mL ([1]; 16 h) | remaining at 24 h, 100 μg/mL ([1]; 24 h)
1 | CO/N=C(\C(=O)N[C@@H]1C(=O)N2C(C(=O)O)=C(CSC(=O)c3ccco3)CS[C@H]12)c1csc(N)n1 [Ceftiofur] | 0.91 µM | 0.91 µM |  |  | 
2 | CC[C@H](C)[C@@H]1NC(=O)[C@H](CO)NC(=O)[C@H](CCCCN)NC(=O)[C@@H]2CSSC[C@@H](C(=O)N[C@@H](Cc3ccc(O)cc3)C(=O)O)NC(=O)[C@H](CCCCN)NC(=O)[C@@H]3CSSC[C@H](NC(=O)[C@H](CCC(N)=O)NC(=O)[C@H]([C@@H](C)CC)NC(=O)[C@H](CC(=O)O)NC(=O)[C@H](CC(=O)O)NC(=O)[C@H](CCC(=O)O)NC(=O)[C@H](CO)NC(=O)[C@H](Cc4c[nH]c5ccccc45)NC(=O)[C@@H]4CCCN4C(=O)CNC(=O)[C@H](CC(N)=O)NC(=O)[C@@H](NC(=O)CNC(=O)[C@H](Cc4ccccc4)NC(=O)CN)CSSC[C@H](NC(=O)[C@H](Cc4ccc(O)cc4)NC(=O)CNC(=O)CNC(=O)[C@H](CCCCN)NC(=O)[C@H](Cc4ccc(O)cc4)NC(=O)CNC(=O)[C@H](CCCCN)NC1=O)C(=O)N[C@@H](C)C(=O)N[C@@H](CCCNC(=N)N)C(=O)NCC(=O)NCC(=O)N[C@@H](Cc1ccccc1)C(=O)N[C@@H](C(C)C)C(=O)N3)C(=O)N[C@@H](Cc1c[nH]cn1)C(=O)N[C@@H](CC(N)=O)C(=O)N[C@@H](Cc1c[nH]cn1)C(=O)N2 [NZX] (H-GFGCNGPWSEDDIQCHNHCKSIKGYKGGYCARGGFVCKCY-OH; disulfide 4-30, 15-37, 19-39; N-terminus and C-terminus assumed) |  |  | 72.2% | 48.4% | 47.9%
